Results on three compounds are retold here after EP4038084B1, “LIPOPEPTIDES, PHARMACEUTICAL COMPOSITION, COSMETIC COMPOSITION, AND LIPOPEPTIDES FOR USE AS A DRUG” (priority 2019, dated 2021).

Values after ≈ are worked out from the molar mass of the structure shown. “Also recorded” adds a separate entry of the source. Where a SMILES comes first, the peptide text is derived from it. [ ]: non-standard residue; d: D form. The star is where a group is joined. Palmitoyl = CCCCCCCCCCCCCCCC(=O)*; Myristoyl = CCCCCCCCCCCCCC(=O)*; Lauroyl = CCCCCCCCCCCC(=O)*; Dab = NCC[C@H](N)C(=O)O

Series [1] has as its system Yersinia enterocolitica PCM 2081. Conditions: LB medium, 24 h at 30°C, OD 600 nm not greater than 0.05. The text has this: All bacterial strains were obtained from the Polish Collection of Microorganisms (PCM) or the American Type Culture Collection (ATCC). Gram-positive bacteria strains: Staphylococcus aureus ATCC 29213, Staphylococcus epidermidis ATCC 12228, and Enterococcus faecalis ATCC 14506. Gram-negative bacteria strains: Escherichia coli ST2-8624 O157:H7, Pseudomonas aeruginosa PAO1 PCM 499, Klebsiella pneumoniae PCM 1, Salmonella sv. Typhimurium TT622, and Yersinia enterocolitica PCM 2081. All strains were cultured in LB (lysogenic broth) medium.
10 mL of LB medium was inoculated with material from a single colony and cultured at 30°C overnight with shaking. Thereafter, the optical density of the overnight cultures (at 600 nm) was adjusted to 0.05 by dilution in a fresh portion of LB medium. The test compounds were dissolved in water. Serial dilutions of compounds were prepared in LB medium ranging from 5 to 50 µg/mL (final concentrations). The experiment was performed by adding 100 µL of each of the prepared dilutions to 100 µL of the diluted overnight bacterial culture in the wells of a 96-well titration plate. […] Optical density measurements were performed using TECAN Sunrise plate reader. Data were obtained from three independent experiments.

The test system of series [2] is Pseudomonas aeruginosa PAO1 PCM 499. Put plainly: Lipopeptide effect on the bacterial growth dynamics. It counts as cell-based. The note with it: OD 600 nm every 60 min for 6 h after 2 h pre-incubation. The protocol:
(§1) Typhimurium TT622, and Yersinia enterocolitica PCM 2081. All strains were cultured in LB (lysogenic broth) medium.
(§2) The effect of different concentrations of the test compounds on the bacterial growth was tested on 3 Gram-negative bacterial strains: Klebsiella pneumoniae PCM 1, Pseudomonas aeruginosa PAO1 PCM 499, and Yersinia enterocolitica PCM 2081 and one Gram-positive strain: Staphylococcus aureus ATCC 29213. The experiment was carried out in a similar way to the MIC determination, but in this case the diluted overnight cultures were pre-incubated for 2 h before adding diluted lipopeptide preparations. The bacterial growth was then monitored by measuring the optical density of the culture at 600 nm every 60 min for 6 h. Data were obtained from three independent experiments. The measurement results are shown as graphs in Figs. 1-3.

Series [3] concerns Yersinia enterocolitica PCM 2081. The series is described as above. It counts as cell-based. The note with it: OD 600 nm every 60 min for 6 h after 2 h pre-incubation. The protocol:
as §1, §2

The test system of series [4] is Klebsiella pneumoniae PCM 1. Described as above. It counts as cell-based. Conditions: OD 600 nm every 60 min for 6 h after 2 h pre-incubation. The protocol: as §1, §2
The subject of series [5] is Staphylococcus aureus ATCC 29213. Conditions: LB medium, 24 h at 30°C, OD 600 nm not greater than 0.05.
The next series concerns Horse red blood cells. It counts as cell-based. The protocol:
(§3) Defibrinated sheep or horse blood was washed three times in PBS buffer (137 mM NaCl, 2.7 mM KCl, 8 mM Na2HPO4, 2 mM KH2PO4, pH 7.4) and diluted to obtain 2% (v/v) preparation of red blood cells (RBC). […] The experiment was performed by adding 190 µL of 2% RBC preparation to 10 µL of each of the prepared lipopeptide dilutions in the wells of a 96-well titer plate. As a positive control, Triton X-100 (2% final concentration) was used, instead of test compound preparations, and PBS buffer was used as a negative control. The samples were then incubated for 30 min at 30°C with shaking. After this time, the plate was centrifuged (1200 rpm) and 150 µL of the supernatant was transferred per well to another titration plate and the absorbance at 415 nm was measured using TECAN Sunrise plate reader. Based on the obtained results, the concentration of lipopeptides was determined at which up to 50% of hemolysis occurs in comparison with the positive control (HC50). Data were obtained from three independent experiments. The measurement results are shown in Table 3 and in the form of graphs in Figs. 7 and 8.

The next series deals with Sheep red blood cells. It counts as cell-based. The protocol: as §3
Series [6] relates to Salmonella sv. Typhimurium TT622. Put plainly: Determination of the minimal inhibitory concentration (MIC). It counts as cell-based. Conditions: LB medium, 24 h at 30°C, OD 600 nm not greater than 0.05. The protocol: as §1
(§4) The test compounds were dissolved in water. […] Data were obtained from three independent experiments.

Series [7] deals with Pseudomonas aeruginosa PAO1 PCM 499. It counts as cell-based. Conditions: LB medium, 24 h at 30°C, OD 600 nm not greater than 0.05. As to the method: as §1, §4
Series [8] relates to Escherichia coli ST2-8624 O157:H7. It counts as cell-based. Conditions: LB medium, 24 h at 30°C, OD 600 nm not greater than 0.05. The protocol:
as §1, §4

The test system of series [9] is Enterococcus faecalis ATCC 14506. It counts as cell-based. The note with it: LB medium, 24 h at 30°C, OD 600 nm not greater than 0.05. The protocol:
as §1, §4

The subject of series [10] is Klebsiella pneumoniae PCM 1. It counts as cell-based. The note with it: LB medium, 24 h at 30°C, OD 600 nm not greater than 0.05. As to the method:
as §1, §4

The subject of series [11] is Staphylococcus epidermidis ATCC 12228. The note with it: LB medium, 24 h at 30°C, OD 600 nm not greater than 0.05.

As for `CCCCCCCCCCCC(=O)N[C@H](Cc1ccccc1)C(=O)N[C@@H](CCN)C(=O)N[C@@H](CCN)C(=O)N[C@@H](CC(C)C)C(N)=O` [C12-fXXL, CH3(CH2)10C(O)-D-Phe-Dab-Dab-Leu-NH2] (Lauroyl-[dF][Dab][Dab]L-NH2), the MIC (as a rule, the least concentration at which growth counts as inhibited) in series [1] is recorded as 20 µg/mL (≈ 30.3 µM); in [5] it was 5 µg/mL (≈ 7.58 µM); in [6], “n.d. (n.d. = not determined, i.e., the MIC value was greater than 50 µg/mL)”; in [7], 20 µg/mL (≈ 30.3 µM); in series [8], 50 µg/mL (≈ 75.8 µM); in series [9], 30 µg/mL (≈ 45.5 µM). In addition, the MIC in series [10] was 20 µg/mL (≈ 30.3 µM); in series [11], 5 µg/mL (≈ 7.58 µM). Also, the “effect on the bacterial growth dynamics” value in [2], in [3] and in series [4] was “slowed down the bacterial growth dynamics at much lower concentrations than that of the C16-fXXL lipopeptide” throughout. Also, the HC50 with Horse red blood cells and in the series on Sheep red blood cells was 30 µg/mL < HC50< 40 µg/mL throughout.
For the compound `CCCCCCCCCCCCCC(=O)N[C@H](Cc1ccccc1)C(=O)N[C@@H](CCN)C(=O)N[C@@H](CCN)C(=O)N[C@@H](CC(C)C)C(N)=O` [C14-fXXL, CH3(CH2)12C(O)-D-Phe-Dab-Dab-Leu-NH2] (Myristoyl-[dF][Dab][Dab]L-NH2), the MIC was 10 µg/mL (≈ 14.5 µM) in series [1]; 5 µg/mL (≈ 7.27 µM) in [5]; “n.d. (n.d. = not determined, i.e., the MIC value was greater than 50 µg/mL)” in series [6]; 20 µg/mL (≈ 29.1 µM) in series [7]; “n.d. (n.d. = not determined, i.e., the MIC value was greater than 50 µg/mL)” in series [8]; 30 µg/mL (≈ 43.6 µM) in [9]. Also, the MIC was determined as 20 µg/mL (≈ 29.1 µM) in series [10] and 5 µg/mL (≈ 7.27 µM) in series [11]. Further, the “effect on the bacterial growth dynamics” value in series [2] is “equally strong effect of slowing down the Gram-negative bacterial growth dynamics; also recorded: slowed down the bacterial growth dynamics at much lower concentrations than that of the C16-fXXL lipopeptide”; in [3], “slowed down the bacterial growth dynamics at much lower concentrations than that of the C16-fXXL lipopeptide”; in series [4] it was “slowed down the bacterial growth dynamics at much lower concentrations than that of the C16-fXXL lipopeptide”. Also, the HC50 with Horse red blood cells and in the series on Sheep red blood cells was 30 µg/mL < HC50< 40 µg/mL each time.
With `CCCCCCCCCCCCCCCC(=O)N[C@H](Cc1ccccc1)C(=O)N[C@@H](CCN)C(=O)N[C@@H](CCN)C(=O)N[C@@H](CC(C)C)C(N)=O` [C16-fXXL, CH3(CH2)14C(O)-D-Phe-Dab-Dab-Leu-NH2, reference compound] (Palmitoyl-[dF][Dab][Dab]L-NH2), the MIC is recorded as 30 µg/mL (≈ 41.9 µM) in series [1]; 5 µg/mL (≈ 6.98 µM) in series [5]; “n.d. (n.d. = not determined, i.e., the MIC value was greater than 50 µg/mL)” in series [6]; “n.d. (n.d. = not determined, i.e., the MIC value was greater than 50 µg/mL)” in series [7]; “no activity” in series [8]; “n.d. (n.d. = not determined, i.e., the MIC value was greater than 50 µg/mL)” in series [9]. The MIC entry in series [10] is recorded as “n.d. (n.d. = not determined, i.e., the MIC value was greater than 50 µg/mL)”; in [11], 5 µg/mL (≈ 6.98 µM). Moreover, the HC50 in the series on Horse red blood cells and in the series on Sheep red blood cells was 30 µg/mL < HC50< 40 µg/mL in each case.
